Test results as given in PMC6973269, “Lipidated Stapled Peptides Targeting the Acyl Binding Protein UNC119” (Chembiochem, 2019).
Where a SMILES comes first, the peptide text is derived from it. Bridges are numbered along the chain shown (N, C = ends). [ ]: non-standard residue; d: D form. The star is where a group is joined. Myristoyl = CCCCCCCCCCCCCC(=O)*; S5 = C=CCCC[C@](C)(N)C(=O)O

What was measured:
UNC119a = biological target: T1, UNC119a (Homo sapiens, UniProt Q13432); test: Fluorescence anisotropy binding assay, UNC119a; conditions: 5 nM fluorescein-labeled peptide, 4 h at room temperature, 30 mM Tris pH 7.5, 100 mM NaCl, 1 mM TCEP, 0.01% Chaps, triplicate, error 1 σ
T1 construct: made in house; host or cells: E. coli
Description: (§1) Fluorescence anisotropy assay
(§2) UNC119a/b was serially diluted in a buffer containing 30 mM Tris (pH 7.5), 100 mM NaCl, 1 mM TCEP and 0.01% Chaps (assay buffer), treated with 5 nM fluorescein-labeled peptides and incubated for 4 h at room temperature. Binding assays were performed in 384-well, small volume, black flat-bottom, non-binding plates (Greiner). Fluorescence polarization values (λex = 470 nm, λem = 525 nm) were determined using a Safire II plate reader (Tecan) at room temperature. All measurements were performed in triplicates. After correction for changes in fluorescence intensity upon binding, the fluorescence anisotropy data were converted into fraction bound (equation 1) of the FITC- labeled peptide and fitted via non-linear regression in Prism 5.0 (Graphpad).[1] fraction bound = A−Afree (1)
(§3) Afree: anisotropy of free fluorophore
(§4) Abound: anisotropy of bound fluorophore
(§5) Q: change in fluorescence intensity between free and bound state
(§6) Protein expression and purification
(§7) UNC119a and UNC119b were expressed in E. coli according to the previously reported procedures.[2] […]
(§8) Additionally, HeLa cells were supplemented with penicillin and streptomycin. All cultures were routinely tested and found to be free of mycoplasma contamination.

UNC119b = biological target: T2, UNC119b (Homo sapiens, UniProt A6NIH7); test: Fluorescence anisotropy binding assay, UNC119b; conditions: 5 nM fluorescein-labeled peptide, 4 h at room temperature, 30 mM Tris pH 7.5, 100 mM NaCl, 1 mM TCEP, 0.01% Chaps, triplicate, error 1 σ
T2 construct: made in house; host or cells: E. coli
T2 sequence (A6NIH7 whole entry, species assumed): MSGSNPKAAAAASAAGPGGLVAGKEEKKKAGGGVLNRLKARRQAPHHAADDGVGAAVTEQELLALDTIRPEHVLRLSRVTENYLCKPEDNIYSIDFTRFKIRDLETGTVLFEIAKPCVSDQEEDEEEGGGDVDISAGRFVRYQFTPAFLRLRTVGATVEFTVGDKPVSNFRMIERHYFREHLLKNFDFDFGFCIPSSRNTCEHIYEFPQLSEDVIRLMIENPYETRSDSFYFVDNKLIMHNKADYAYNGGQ
Description: as §1, §2, §3, §4, §5, §6, §7, §8

HeLa cells [1] = test: Cellular uptake of fluorescently labeled peptides by flow cytometry; type: cell-based, human; conditions: fluorescently labeled peptide, 5 μM, 90 min, flow cytometry fluorescence intensity, % of levels observed for R8
Description: As the knock‐down of UNC119a was reported to increase the number of cytokinetic and binucleated cells,13 we investigated the influence of UNC119‐binding peptides on cell morphology. Initially, the uptake of fluorescently labeled peptide 4 by HeLa cells was investigated by using flow cytometry (c=5 μM for 90 min, Figure S4 and Table S2). These measurements show cellular uptake of 4 reaching about 50 % of the levels observed for cell‐penetrating peptide octa‐arginine (R8).30 Considering that this cellular uptake was sufficient, we tested the effect of unlabeled peptide 4 on cell morphology. As a reference, we used nocodazole (NC), which inhibits tubulin polymerization thereby inducing cell‐cycle arrest in the G2/M phase that results in cells with increased DNA content because chromosomal DNA has already been duplicated. HeLa and mouse fibroblast L cells were incubated with different peptide concentrations for 72 h prior to quantification of DNA content by using flow cytometry.
Supporting Figure S4. Cellular uptake of fluorescently labeled peptides as determined by fluorescence
intensities using flow cytometry in HeLa cells (90 min incubation at c(peptide) = 5 µM).
(1 picture or pasted object on this page, not shown here)

MDA-MB-231 cells [2] = test: Total intracellular peptide concentration by quantitative UPLC-MS; type: in vitro ADME; conditions: for Total drug content, pMols/million cells / Total drug content, Measured Conc: 25 µM compound, 0.5 h; for Total drug content, pMols/million cells: total lysis; for Total drug content, pMols/million cells / Total drug content, Measured Conc / Peptide concentration, total cell, 0.5 h: UPLC-MS; for Fold higher total cell uptake than peptide 10: 25 μM, 30 min, quantitative mass spectrometry; for Fold higher total cell uptake than peptide 10 / Peptide concentration, total cell, 0.5 h: MDA-MB-231 cells; for Total drug content, Measured Conc: concentration in re-suspended cell lysate, dilution factor 10; for Peptide concentration, total cell, 0.5 h: unlabeled peptide 25 μM, 0.5 h incubation, RIPA total lysis, LLOQ given if not detected
Description: (§9) Total intracellular and sub cellular concentrations
(§10) […] cells were cultured DMEM (high glucose) supplemented with 10% FCS and 1% Glutamax.
(§11) When 80% confluency cell culture media was removed from each flask and new media containing 25 µM of peptides was added and incubated with cells for 30 min and 72 h. Following peptide incubation, cells were washed twice with PBS, trypsinized and pelleted. Pellets where lysed in RIPA buffer (Perkin Elmer) for total […]
(§12) lysis; or CelLytic NuCLEAR Extraction Kit (SIGMA) for subcellular fractionation. Total protein quantification BCA (Pierce) was performed prior to MS analysis to normalize sample data.
(§13) Total and sub-cellular quantities of peptides 4, 10 and R8 were quantified[3] in lysates by UPLC-MS utilising a Waters Xevo TQ-XS (WBA0259) and a Waters Acquity UPLC system consisting of, Sample Manager (M16UFL953M), Acquity PDA (F17UPD457A), Column Oven (E17CMP703G) and Binary Solvent Manager (E17BUR621G). For peptides 4 and 10 analytical UPLC separation was performed using a Waters CSH C18 1.7 µm, 2.1 x 50 mm column. A gradient was utilized of 97% A to 5% in 4mins, 0.5 min hold, 5% A to 97% in 0.5mins, where A = 0.1% HCOOH (aq) and B = 0.1% HCOOH in MeCN at a flow rate of 0.75 mL/min (Supporting Figure S7). Compound R8 was analyzed in HILIC mode using a Waters BEH Amide 1.7 µm, 2.1 x 100 mm column with a gradient of 30% A to 95% in 1.5 mins, 1 min hold, 95% A to 30% in 1.5 min, 1 min hold at 0.65 mL/min. The Waters TQ-XS was operated in +ve ion Electrospray (ESI) mode with the optimized transitions for PC658-AC, PC658-MYR and Ac-R8 (Supporting Table S3 and Figure S8). The chromatograms at each transition were extracted, smoothed and integrated to give the standard curve. Chromatograms of the samples were treated similarly and by linear regression (1/x) an in-cell concentration was established in the re-suspended cell lysate using the Waters MassLynx TargetLynxTM product (Supporting Tables S4 – S7).

MDA-MB-231 cells [3] = test: Subcellular (nucleus, cytosol) peptide concentration by quantitative UPLC-MS; type: in vitro ADME; conditions: for Peptide concentration, cytosol, 0.5 h / Peptide concentration, nucleus, 0.5 h / Peptide concentration, cytosol, 72 h / Peptide concentration, nucleus, 72 h: unlabeled peptide 25 μM, MDA-MB-231 cells, subcellular fractionation, LLOQ given if not detected; for Peptide concentration, cytosol, 0.5 h / Peptide concentration, nucleus, 0.5 h: 0.5 h incubation; for Peptide concentration, cytosol, 72 h / Peptide concentration, nucleus, 72 h: 72 h incubation
Description: as §9, §10, §11, §12, §13

mouse fibroblast L cells = test: DNA content (4N) by propidium iodide staining and flow cytometry, L cells; type: cell-based; conditions: control compound 1 µM (maximum tolerated concentration), 24 h, flow cytometry, triplicate, error 1 σ
Description: (§14) 3 x10^4 L or Hela cells were seeded per well in 6–well plates and grown overnight. The following day, cells were treated with the indicated compound concentrations for 72 h or with nocodazole as a control for 24 h). Cells were washed, detached using trypsin and re-suspended in phosphate-buffered saline (PBS).
(§15) Cells were centrifuged at 200xg for 5 min at room temperature (RT) and washed again. Cells were then fixed with 70% ethanol and stained with propidium iodide solution (12 µg/mL propidium iodide (Sigma, Germany), 0.1% (v/v) Triton X-100 and 100 µg/mL DNase-free RNase A (Sigma, Germany) in PBS) for 30 min at room temperature. Cell suspensions were filtered to FACS tubes through a nylon mesh before analysis.
(§16) 10,000 cells for each sample were sorted by the BD LSRII analyzer (Becton Dickinson, USA). FlowJo 6.2.1 software was used for quantification and analysis of all data. For every analysis, FSC and SSC (forward and side scatter, respectively) gating was performed to exclude doublets and debris. In addition, cells were gated for singlets (PI-W vs. PI-A). […]

HeLa cells [4] = test: DNA content (4N) by propidium iodide staining and flow cytometry, HeLa cells; type: cell-based, human; conditions: control compound 1 µM (maximum tolerated concentration), 24 h, flow cytometry, triplicate, error 1 σ
Description: as §14, §15, §16

HeLa cells [5] = test: Fluorescence microscopy of cell morphology (tubulin antibody, DAPI); type: cell-based, human; conditions: 1 μM, 24 h, fixation, anti-tubulin antibody and DAPI staining
Description: 2x10^4 Hela cells were seeded per well in a 24-well plate on cover slips and incubated overnight. Next day, cells were treated with different concentrations of the peptides or DMSO, nocodazole and cytochalasin D as controls and incubated at 37°C and 5% CO2 for the indicated times (72 h or 24 h). Cells were then fixed using 3.7% paraformaldehyde for 15 min at room temperature followed by permeabilization using 0.1% Triton X-100 in PBS for 15 min. Blocking was performed in 2% BSA in PBS containing 0.1% Tween 20 for 1 h at room temperature. Samples were incubated with the indicated primary antibodies (anti-tubulin primary antibody conjugated to FITC) in the blocking solution overnight at 4°C. After washing, cells were incubated with 1 µg/mL DAPI in blocking solution for 1 h at room temperature, followed by three washes with PBS.

[6] = 25 µM compound, 0.5 h, concentration in lysate
[7] = 25 µM compound, 72 h, concentration in lysate

Kd (UNC119a) [nM]	Kd (UNC119b) [nM]	Total drug content, pMols/million cells (MDA-MB-231 cells [2]) [pMols/million cells]	Fold higher total cell uptake than peptide 10 (MDA-MB-231 cells [2])	Total drug content, Measured Conc (MDA-MB-231 cells [2]) [nM]	Peptide concentration, total cell, 0.5 h (MDA-MB-231 cells [2]) [pmol per 10^6 cells]	Peptide concentration, cytosol, 0.5 h (MDA-MB-231 cells [3]) [pmol per 10^6 cells]	Peptide concentration, nucleus, 0.5 h (MDA-MB-231 cells [3]) [pmol per 10^6 cells]	Peptide concentration, cytosol, 72 h (MDA-MB-231 cells [3]) [pmol per 10^6 cells]	Peptide concentration, nucleus, 72 h (MDA-MB-231 cells [3]) [pmol per 10^6 cells]	Compound	further results
7.4	11.2									CCCCCCCCCCCCCC(=O)NCC(=O)N[C@@H](C)C(=O)NCC(=O)N[C@@H](C)C(=O)N[C@@H](CO)C(=O)N[C@@H](C)C(=O)N[C@@H](CCC(=O)O)C(=O)N[C@@H](CCC(=O)O)C(=O)N[C@@H](CCCCN)C(=O)N[C@@H](Cc1c[nH]cn1)C(=O)N[C@@H](CCCCN)C(N)=O [Peptide 1] (Myristoyl-GAGASAEEKHK-NH2)	
5.5	63.2 ± 14	59.9	more than 100 fold	155	60	<0.001	0.22	0.01	0.45	CCCCCCCCCCCCCC(=O)NCC(=O)N[C@@H](C)C(=O)NCC(=O)N[C@@H](C)C(=O)N[C@@H](CO)C(=O)N[C@@]1(C)CCCC=CCCC[C@@](C)(C(=O)N[C@@H](CCCCN)C(N)=O)NC(=O)[C@H](CCCCN)NC(=O)[C@H](CCC(=O)O)NC(=O)[C@H](CCC(=O)O)NC1=O [Peptide 4] (Myristoyl-GAGAS[S5]EEK[S5]K-NH2; staple 6-10)	Cellular uptake relative to octa-arginine (R8) (HeLa cells [1]): about 50%
		51.7	more than 100 fold	108	52	0.58	0.56	0.65	0.64	CC(=O)N[C@@H](CCCNC(=N)N)C(=O)N[C@@H](CCCNC(=N)N)C(=O)N[C@@H](CCCNC(=N)N)C(=O)N[C@@H](CCCNC(=N)N)C(=O)N[C@@H](CCCNC(=N)N)C(=O)N[C@@H](CCCNC(=N)N)C(=O)N[C@@H](CCCNC(=N)N)C(=O)N[C@@H](CCCNC(=N)N)C(N)=O [R8]	Sub-cellular drug content, pMols/million cells, Cytoplasm, 0.5 h (MDA-MB-231 cells [3]; 25 µM compound, 0.5 h): 0.584 pMols/million cells; Sub-cellular drug content, pMols/million cells, Nuclear, 0.5 h (MDA-MB-231 cells [3]; 25 µM compound, 0.5 h): 0.563 pMols/million cells; Sub-cellular drug content, Measured Conc, Cytoplasm, 0.5 h (MDA-MB-231 cells [3]; [6]): 3.59 nM; Sub-cellular drug content, Measured Conc, Nuclear, 0.5 h (MDA-MB-231 cells [3]; [6]): 6.91 nM; Sub-cellular drug content, pMols/million cells, Cytoplasm, 72 h (MDA-MB-231 cells [3]; 25 µM compound, 72 h): 0.651 pMols/million cells; Sub-cellular drug content, pMols/million cells, Nuclear, 72 h (MDA-MB-231 cells [3]; 25 µM compound, 72 h): 0.638 pMols/million cells; Sub-cellular drug content, Measured Conc, Cytoplasm, 72 h (MDA-MB-231 cells [3]; [7]): 2.92 nM; Sub-cellular drug content, Measured Conc, Nuclear, 72 h (MDA-MB-231 cells [3]; [7]): 5.73 nM
										COC(=O)Nc1nc2ccc(C(=O)c3cccs3)cc2[nH]1 [nocodazole]	DNA-content 4N, L cells (mouse fibroblast L cells): 75.4 ± 15.0%; DNA-content 4N, L cells (mouse fibroblast L cells; listed as NC): increased numbers of cells with doubled DNA content; DNA-content 4N, HeLa cells (HeLa cells [4]): 68.6 ±4.2%; DNA-content 4N, HeLa cells (HeLa cells [4]; listed as NC): increased numbers of cells with doubled DNA content; Effect on HeLa cell morphology (HeLa cells [5]): deformation of the tubulin network
